{"source": "the supplement of paper PMC10307832", "assay_in_all_cases": "relative viability (nuclei count vs DMSO), 5 days (fraction); higher = more cells survive", "key": {"[1]": {"compound": "C(C(=O)C(=O)O)Br [Bromopyruvate] + CC(=O)c1c(C)c2cnc(Nc3ccc(N4CCNCC4)cn3)nc2n(C2CCCC2)c1=O [Palbociclib] (partner 0.5 µM)", "how_it_was_run": "(§1)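 Lung cancer cell lines, seeded in 1536-well plates, were treated the following day by pin tool with a single drug or with five library-drug doses (not always all listed) in √10 steps on top of a fixed anchor-drug dose. Cells were fixed and nuclei stained in one step after 5 days, and nuclei were counted. Relative viability is the nuclei count for treated wells divided by that for vehicle wells, reported as medians of duplicate plates.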"}, "[2]": {"compound": "C(C(=O)C(=O)O)Br [Bromopyruvate] + Nc1ncn([C@H]2C[C@H](O)[C@@H](CO)O2)c(=O)n1 [Decitabine] (partner 2 µM)", "how_it_was_run": "as §1"}, "[3]": {"compound": "C(C(=O)C(=O)O)Br [Bromopyruvate] + Cc1nc(Nc2ncc(C(=O)Nc3c(C)cccc3Cl)s2)cc(N2CCN(CCO)CC2)n1 [Dasatinib] (partner 0.075 µM)", "how_it_was_run": "as §1"}, "Bicalutamide + Alpelisib": {"compound": "CC(O)(CS(=O)(=O)c1ccc(F)cc1)C(=O)Nc1ccc(C#N)c(C(F)(F)F)c1 [Bicalutamide] + Cc1nc(NC(=O)N2CCC[C@H]2C(N)=O)sc1-c1ccnc(C(C)(C)C(F)(F)F)c1 [Alpelisib] (partner 2 µM)", "how_it_was_run": "as §1"}}}
{"cell line": "UMC-11", "values": [{"measurement": "relative viability", "setting": "[1]; first compound 1 µM", "result": 0.343}, {"measurement": "relative viability", "setting": "[1]; first compound 3.162 µM", "result": 0.353}, {"measurement": "relative viability", "setting": "[1]; first compound 10 µM", "result": 0.324}, {"measurement": "relative viability", "setting": "[1]; first compound 31.62 µM", "result": 0.367}, {"measurement": "relative viability", "setting": "[1]; first compound 100 µM", "result": 0.356}, {"measurement": "relative viability", "setting": "[2]; first compound 1 µM", "result": 0.596}, {"measurement": "relative viability", "setting": "[2]; first compound 3.162 µM", "result": 0.574}, {"measurement": "relative viability", "setting": "[2]; first compound 10 µM", "result": 0.815}, {"measurement": "relative viability", "setting": "[2]; first compound 31.62 µM", "result": 0.617}, {"measurement": "relative viability", "setting": "[2]; first compound 100 µM", "result": 0.708}, {"measurement": "relative viability", "setting": "[3]; first compound 1 µM", "result": 0.504}, {"measurement": "relative viability", "setting": "[3]; first compound 3.162 µM", "result": 0.497}, {"measurement": "relative viability", "setting": "[3]; first compound 10 µM", "result": 0.484}, {"measurement": "relative viability", "setting": "[3]; first compound 31.62 µM", "result": 0.433}, {"measurement": "relative viability", "setting": "[3]; first compound 100 µM", "result": 0.495}, {"measurement": "relative viability", "setting": "Bicalutamide + Alpelisib; first compound 0.08 µM", "result": 1.05}, {"measurement": "relative viability", "setting": "Bicalutamide + Alpelisib; first compound 0.253 µM", "result": 0.9}, {"measurement": "relative viability", "setting": "Bicalutamide + Alpelisib; first compound 0.8 µM", "result": 1.12}, {"measurement": "relative viability", "setting": "Bicalutamide + Alpelisib; first compound 2.53 µM", "result": 0.976}]}
